According to US7112565B2, “Stabilized pharmaceutical composition in lyophilized form” (Astellas Pharma Inc., priority 1999, dated 2006):

Legend:
Type in all cases: physicochemical
[1] = Test Example 4: stability of lyophilized compositions of 200 mg of lactose and Compound (II) in vial
Method: (§1) 10 mg of Compound (II) and, as a stabilizer, 100 mg of lactose or 9 mg of sodium chloride were dissolved completely in 1 ml of water. The resulting solutions were lyophilized and maintained at 70° C. in glass vials. Nine days after, the resulting compositions were tested on their appearance, the residual amount of Compound (II), and others. As a control, used was a solution of Compound (II) without any stabilizers.
Stability of Lyophilized Compositions of 200 mg of Lactose and Compound (II) in Vial
Tests were carried out in the same manner as in Test Example 1 except that 12.5 mg, 25 mg, 50 mg, 75 mg or 100 mg of Compound (II) were used with 200 mg of lactose. […] Regarding all the compositions, their appearance is a white mass, the time for reconstitutional dissolution was 15 seconds, and the color and the clarity of reconstituted solutions of the compositions were colorless and transparent.

[2] = Test Example 6: dependence of stability on the pH of the solution before lyophilizing; settings: for Residual amount / Water content / pH of reconstituted solution in 5 ml of purified water: 10 mg Compound (II) + 100 mg lactose
Method: Dependence of the Stability of Lyophilized Compositions of Compound (II) upon the pH Value of the Solution of the Composition before Lyophilizing
10 mg of Compound (II) and, as a stabilizer, 100 mg of lactose were dissolved completely in 1 ml of citrate-NaOH buffer having different pH value between pH 4.0 to 7.0. The resulting solutions having different pH values were lyophilized and maintained at 70° C. in glass vials. Nine days after, the resulting compositions were tested on their pH and the residual amount of Compound (II).

[3] = Test Example 2: stability with maltose, sucrose or glucose as stabilizer
Method: as §1
The similar tests were conducted in the same manner as in Test Example 1 except that 100 mg of maltose, 50 mg of sucrose or 50 mg of glucose was used as a stabilizer.

[4] = 12.5 mg Compound (II) + 200 mg lactose, 0 hours
[5] = 12.5 mg Compound (II) + 200 mg lactose, after 3 months at 40° C. and 75% humidity
[6] = 12.5 mg Compound (II) + 200 mg lactose, after 9 days at 70° C.
[7] = 12.5 mg Compound (II) + 200 mg lactose, after 21 days at 60° C.
[8] = 25 mg Compound (II) + 200 mg lactose, 0 hours
[9] = 25 mg Compound (II) + 200 mg lactose, after 9 days at 70° C.
[10] = 25 mg Compound (II) + 200 mg lactose, after 21 days at 60° C.
[11] = 50 mg Compound (II) + 200 mg lactose, 0 hours
[12] = 50 mg Compound (II) + 200 mg lactose, after 3 months at 40° C. and 75% humidity
[13] = 50 mg Compound (II) + 200 mg lactose, after 9 days at 70° C.
[14] = 50 mg Compound (II) + 200 mg lactose, after 21 days at 60° C.
[15] = 75 mg Compound (II) + 200 mg lactose, 0 hours
[16] = 75 mg Compound (II) + 200 mg lactose, after 3 months at 40° C. and 75% humidity
[17] = 75 mg Compound (II) + 200 mg lactose, after 9 days at 70° C.
[18] = 75 mg Compound (II) + 200 mg lactose, after 21 days at 60° C.
[19] = 100 mg Compound (II) + 200 mg lactose, 0 hours
[20] = 100 mg Compound (II) + 200 mg lactose, after 3 months at 40° C. and 75% humidity
[21] = 100 mg Compound (II) + 200 mg lactose, after 9 days at 70° C.
[22] = 100 mg Compound (II) + 200 mg lactose, after 21 days at 60° C.
[23] = all compositions: 12.5 to 100 mg Compound (II) + 200 mg lactose
[24] = solution pH 4.0 before lyophilizing, 0 hours
[25] = solution pH 4.0 before lyophilizing, 9 days at 70° C.
[26] = solution pH 4.5 before lyophilizing, 0 hours
[27] = solution pH 4.5 before lyophilizing, 9 days at 70° C.
[28] = solution pH 5.0 before lyophilizing, 0 hours
[29] = solution pH 5.0 before lyophilizing, 9 days at 70° C.
[30] = solution pH 5.5 before lyophilizing, 0 hours
[31] = solution pH 5.5 before lyophilizing, 9 days at 70° C.
[32] = solution pH 6.0 before lyophilizing, 0 hours
[33] = solution pH 6.0 before lyophilizing, 9 days at 70° C.
[34] = solution pH 6.5 before lyophilizing, 0 hours
[35] = solution pH 6.5 before lyophilizing, 9 days at 70° C.
[36] = solution pH 7.0 before lyophilizing, 0 hours
[37] = solution pH 7.0 before lyophilizing, 9 days at 70° C.
[38] = 10 mg Compound (II) + glucose (50 mg), 0 hours
[39] = 10 mg Compound (II) + glucose (50 mg), after 9 days at 70° C.
[40] = 10 mg Compound (II) + maltose (100 mg), 0 hours
[41] = 10 mg Compound (II) + maltose (100 mg), after 9 days at 70° C.
[42] = 10 mg Compound (II) + sucrose (50 mg), 0 hours
[43] = 10 mg Compound (II) + sucrose (50 mg), after 9 days at 70° C.
[44] = 10 mg Compound (II), control: nil stabilizer, 0 hours
[45] = 10 mg Compound (II), control: nil stabilizer, after 9 days at 70° C.

CCCCCOc1ccc(-c2cc(-c3ccc(C(=O)NC4CC(O)C(O)NC(=O)C5C(O)C(C)CN5C(=O)C(C(O)CC(N)=O)NC(=O)C(C(O)C(O)c5ccc(O)c(OS(=O)(=O)[O-])c5)NC(=O)C5CC(O)CN5C(=O)C(C(C)O)NC4=O)cc3)no2)cc1.[Na+] (centres unmarked) [Compound (II)]
Residual amount [1, 4]: 100.0% | Total impurities [1, 4]: 2.24% | Water content [1, 4]: 1.3% | pH of reconstituted solution in 5 ml of purified water [1, 4]: 6.63 | Residual amount [1, 5]: 99.6% | Total impurities [1, 5]: 2.71% | pH of reconstituted solution in 5 ml of purified water [1, 5]: 6.08 | Residual amount [1, 6]: 98.1% | Total impurities [1, 6]: 3.95% | pH of reconstituted solution in 5 ml of purified water [1, 6]: 6.15 | Residual amount [1, 7]: 97.5% | Total impurities [1, 7]: 3.75% | pH of reconstituted solution in 5 ml of purified water [1, 7]: 6.31 | Residual amount [1, 8]: 100.0% | Total impurities [1, 8]: 2.25% | Water content [1, 8]: 1.1% | pH of reconstituted solution in 5 ml of purified water [1, 8]: 6.37 | Total impurities ([1]; 25 mg Compound (II) + 200 mg lactose, after 3 months at 40° C. and 75% humidity): 2.68% | Residual amount [1, 9]: 99.3% | Total impurities [1, 9]: 4.03% | pH of reconstituted solution in 5 ml of purified water [1, 9]: 6.07 | Residual amount [1, 10]: 98.2% | Total impurities [1, 10]: 3.49% | pH of reconstituted solution in 5 ml of purified water [1, 10]: 6.11 | Residual amount [1, 11]: 100.0% | Total impurities [1, 11]: 2.25% | Water content [1, 11]: 1.2% | pH of reconstituted solution in 5 ml of purified water [1, 11]: 6.26 | Residual amount [1, 12]: 100.5% | Total impurities [1, 12]: 2.74% | pH of reconstituted solution in 5 ml of purified water [1, 12]: 6.00 | Residual amount [1, 13]: 97.9% | Total impurities [1, 13]: 3.95% | pH of reconstituted solution in 5 ml of purified water [1, 13]: 5.99 | Residual amount [1, 14]: 97.3% | pH of reconstituted solution in 5 ml of purified water [1, 14]: 6.00 | Residual amount [1, 15]: 100.0% | Total impurities [1, 15]: 2.28% | Water content [1, 15]: 0.9% | pH of reconstituted solution in 5 ml of purified water [1, 15]: 6.13 | Residual amount [1, 16]: 99.0% | Total impurities [1, 16]: 2.76% | pH of reconstituted solution in 5 ml of purified water [1, 16]: 6.04 | Residual amount [1, 17]: 98.1% | Total impurities [1, 17]: 4.14% | pH of reconstituted solution in 5 ml of purified water [1, 17]: 5.95 | Total impurities [1, 18]: 3.83% | pH of reconstituted solution in 5 ml of purified water [1, 18]: 5.96 | Residual amount [1, 19]: 100.0% | Total impurities [1, 19]: 2.46% | Water content [1, 19]: 1.3% | pH of reconstituted solution in 5 ml of purified water [1, 19]: 6.03 | Residual amount [1, 20]: 99.5% | Total impurities [1, 20]: 2.79% | Residual amount [1, 21]: 97.8% | Total impurities [1, 21]: 4.15% | pH of reconstituted solution in 5 ml of purified water [1, 21]: 5.92 | Residual amount [1, 22]: 96.7% | Total impurities [1, 22]: 3.92% | pH of reconstituted solution in 5 ml of purified water [1, 22]: 5.88 | Appearance [1, 23]: white mass | Clarity of reconstituted solutions [1, 23]: transparent | Color of reconstituted solutions [1, 23]: colorless | Time for reconstitutional dissolution [1, 23]: 15 s | Residual amount ([2]; all solution pH values 4.0 to 7.0, 0 hours): 100% | Water content [2, 24]: 0.2% | pH of reconstituted solution in 5 ml of purified water [2, 24]: 3.9 | Residual amount [2, 25]: 94.4% | pH of reconstituted solution in 5 ml of purified water [2, 25]: 4.0 | Water content [2, 26]: 0.2% | pH of reconstituted solution in 5 ml of purified water [2, 26]: 4.4 | Residual amount [2, 27]: 95.9% | pH of reconstituted solution in 5 ml of purified water [2, 27]: 4.5 | Water content [2, 28]: 0.3% | pH of reconstituted solution in 5 ml of purified water [2, 28]: 4.8 | Residual amount [2, 29]: 97.4% | pH of reconstituted solution in 5 ml of purified water [2, 29]: 4.9 | Water content [2, 30]: 0.3% | pH of reconstituted solution in 5 ml of purified water [2, 30]: 5.4 | Residual amount [2, 31]: 98.5% | pH of reconstituted solution in 5 ml of purified water [2, 31]: 5.4 | Water content [2, 32]: 0.3% | pH of reconstituted solution in 5 ml of purified water [2, 32]: 5.8 | Residual amount [2, 33]: 97.7% | pH of reconstituted solution in 5 ml of purified water [2, 33]: 5.8 | Water content [2, 34]: 0.4% | pH of reconstituted solution in 5 ml of purified water [2, 34]: 6.4 | Residual amount [2, 35]: 96.9% | pH of reconstituted solution in 5 ml of purified water [2, 35]: 6.4 | Water content [2, 36]: 0.3% | pH of reconstituted solution in 5 ml of purified water [2, 36]: 6.8 | Residual amount [2, 37]: 95.8% | pH of reconstituted solution in 5 ml of purified water [2, 37]: 6.8 | Stability of composition (conclusion from Table 5) ([2]; after lyophilizing the solution at pH 4.0 to 7.0 at least, preferably pH 4.5 to 7.0): stable | Appearance [3, 38]: White melt | Residual amount [3, 38]: 100% | Water content [3, 38]: 4.3% | pH of reconstituted solution in 1 ml of water [3, 38]: 6.9 | Appearance [3, 39]: Brown melt | Residual amount [3, 39]: 1.1% | pH of reconstituted solution in 1 ml of water [3, 39]: 3.6 | Appearance [3, 40]: White mass | Residual amount [3, 40]: 100.0% | Water content [3, 40]: 0.9% | pH of reconstituted solution in 1 ml of water [3, 40]: 7.3 | Appearance [3, 41]: White mass | Residual amount [3, 41]: 98.6% | pH of reconstituted solution in 1 ml of water [3, 41]: 6.7 | Appearance [3, 42]: White mass | Residual amount [3, 42]: 100.0% | Water content [3, 42]: 1.1% | pH of reconstituted solution in 1 ml of water [3, 42]: 6.9 | Appearance [3, 43]: White melt | Residual amount [3, 43]: 82.4% | pH of reconstituted solution in 1 ml of water [3, 43]: 7.0 | Appearance [3, 44]: White mass | Residual amount [3, 44]: 100.0% | Water content [3, 44]: 3.3% | pH of reconstituted solution in 1 ml of water [3, 44]: 6.8 | Appearance [3, 45]: White mass | Residual amount [3, 45]: <75.0% | pH of reconstituted solution in 1 ml of water [3, 45]: 5.4
